Columns and labels:
PSMA = target: T1, PSMA (Homo sapiens, UniProt Q04609); assay: Competition binding studies, Example 2
T1 construct: expressed in transfected cells; host or cells: PC3pip cells (PC3 retrovirally transduced with PSMA), from Dr. Michel Sadelain, MSKCC
Procedure: PC3pip cells ([…]) was suspended in 200 μL of 50 mM Tris buffer, pH 7.5. The cells were incubated at 37° C. with different concentrations of PSMA-1-MMAE-IR700 or ZJ24 in the presence of 12 nM of 3H-ZJ24 for 1 h. The cells were then washed 3 times with cold PBS and cell-associated radioactivity was measured by scintillation counting. The concentration required to inhibit 50% of the binding (IC50) was determined by GraphPad Prism 3.0. Studies were performed in triplicate.

human liver cathespin = target: T2, human liver cathespin (Homo sapiens, UniProt P07858); assay: Cathepsin cleavage studies, Example 2; format: in vitro ADME; conditions: 37° C., HPLC
T2 construct: purchased Anthens Research and Technology, Anthens, GA; host or cells: human liver (tissue-derived enzyme)
Procedure: Enzymatic cleavage study of PSMA-1-MMAE-IR700 was performed as previously described. PSMA-1-MMAE-IR700 was incubated with activated human liver cathespin (Anthens Research and Technology, Anthens, GA) at 37° C. At different incubation time, 40 μL of the solution was placed into tubes loaded with 1 μL of 1 mM E64 protease inhibitor. The mixture was vortexed and then stored at −80° C. for future HPLC analysis. Studies were performed in triplicate. In vitro cellular uptake studies cells were plated on coverslips at about 60-70% confluency. Twenty-four hours later, cells were incubated with 50 nM of PSMA-1-MMAE-IR700. After incubation for various times (15 min, 30 min, 1 h and 4 h), cells were washed twice with cold RPMI 1640, fixed with 4% paraformaldehyde and counterstained with 4′,6-diamidino-2-phenylindole (DAPI). Images were taken using a Leica DM4000B fluorescence microscope (Leica Biosystems, Buffalo Gove, IL) at 40×. Blocking experiments were performed by co-incubation of cells with 50 nM of PSMA-1-MMAE-IR700 and 100× of PSMA-1 ligand. Studies were performed in triplicate.

[1] = In vitro cytotoxicity studies (CellTiter 96) with or without 690 nm light, PC3pip; format: cell-based, human; conditions: 24 h in the dark, no light; read-out: IC50 dark cytotoxicity, PC3pip cells
Procedure: (§1) PC3pip and PC3flu cells were plated at 3,000 cells/well in 96-well plates. Twenty-four hours later, drugs (PSMA-1-MMAE-IR700 or PSMA-1-IR700) of different concentrations were added. After incubation at 37° C. in the dark for 24 h, cell viability was determined by CellTiter 96© aqueous one solution cell proliferation assay using absorbance at 490 nm (Promega Biotech, Madison, […]). The concentration required to inhibit 50% of cell growth (IC50) was determined by GraphPad Prism 3.0. To test the cytotoxicity of PSMA-1-MMAE-TR700 with light irradiation, drugs at a final concentration of 5 nM were added to cells and incubated in the dark for 24 h. Cells were then washed 3 times with RMPI 1640 and then irradiated with 690 nm light (L690-66-60, Marubeni America Co, New York, NY). Cells were incubated in the dark for another 24 h. Cell viability was then determined by CellTiter 96© aqueous one solution cell proliferation assay (Promega Biotech, Madison, […]). The coefficient drug interaction (CDI) was calculated as follows: CDI=AB/(A×B), where AB is the ratio of the absorbance of combination treatment groups (PSMA-1-MMAE-IR700 with light irradiation) to the absorbance of control groups; A or B is the absorbance of single treatment group (PSMA-1-MMAE-IR700 without light or PSMA-1-IR700 with light irradiation) to the absorbance of control groups. CDI <1, =1 and >1 indicates synergistic, additive or antagonistic effect.

[2] = system: PSMA-positive PC3pip cells; assay: as above; format: cell-based, human; conditions: for ratio of absorbance to control groups (cell viability): 5 nM, 24 h
Procedure: as §1

PC3pip and PC3flu tumors = assay: In vivo fluorescence imaging studies, heterotopic tumors; set-up: species or system mice
Procedure: Animal experiments were approved by the animal care and use committee at Case Western Reserve University (IACUC #150033). Six to eight-week-old male Balb/c athymic nude mice (Jackson Laboratory, Bar Harbor, ME) were implanted subcutaneously with 1×10^6 of PC3pip (right flank) and PC3flu (left flank) cells in 100 μl of matrigel. Animals were ready to use when tumor diameter reached 10 mm, about two weeks. Animals received 100 nmol/kg of PSMA-1-MMAE-IR700 through tail vein injection and were imaged at different time points by Maestro In vivo Image System (Perkin Elmer, Waltham, MI) using the yellow filter set (excitation 575-605 nm, emission 645 nm longpass). During imaging, mice were anesthetized by isoflurane. At 48 h post injection, mice were sacrificed and tissues such as heart, lung, liver, kidneys, stomach, tumors were harvested for ex vivo imaging. Multispectral images were unmixed into their component spectra and average fluorescence signals were quantified by creating regions of interest. Experiments were performed in 5 mice.

PC3pip tumors = assay: Immunofluorescent detection of apoptosis (caspase-3, H&E); format: in vivo, mice; conditions: single dose, four days after the treatment
Source text: Animals bearing PC3pip tumors were divided into 7 groups: (1) mice receiving PBS; (2) mice receiving 100 nmol/kg PSMA-1-MMAE-IR700 with PDT; (3) mice receiving equal doses of PSMA-1-MMAE-IR700 to group 2, but not receiving PDT; (4) Mice receiving equal doses of PSMA-1-IR700 to group 2 with PDT treatment; (5) Mice receiving equal doses of PSMA-1-IR700 to group 2 without PDT; (6) mice receiving equal dose of PSMA-1-IR700 to group 2+free MMAE with PDT (MMAE normalized to that delivered by PSMA-1-MMAE-IR700); and (7) mice receiving equal dose of PSMA-1-IR700 to group 2+free MMAE without PDT. Animals were treated with one single dose and were sacrificed at 4-day post treatment. Tumors were snap-frozen in OCT, cut into 10 μm thick sections and fixed on slides. Induction of apoptosis by the treatment was determined by rabbit polyclonal anti-Caspase-3 antibody (Abcam, Cambridge, UK). A goat anti-rabbit polyclonal antibody labeled by Alexa Fluor-594 was used as secondary antibody (Abcam, Cambridge, UK). The presence of apoptosis was determined by fluorescence images under Leica DM4000B fluorescence microscope at 10×. H&E staining of tumor tissues was performed in adjacent sections to check the histology of the tumors. Experiments were repeated in 5 mice.

[3] = 4 h post injection, 100 nmol/kg
[4] = 48 h post injection, 100 nmol/kg

T1 sequence (Q04609 whole entry): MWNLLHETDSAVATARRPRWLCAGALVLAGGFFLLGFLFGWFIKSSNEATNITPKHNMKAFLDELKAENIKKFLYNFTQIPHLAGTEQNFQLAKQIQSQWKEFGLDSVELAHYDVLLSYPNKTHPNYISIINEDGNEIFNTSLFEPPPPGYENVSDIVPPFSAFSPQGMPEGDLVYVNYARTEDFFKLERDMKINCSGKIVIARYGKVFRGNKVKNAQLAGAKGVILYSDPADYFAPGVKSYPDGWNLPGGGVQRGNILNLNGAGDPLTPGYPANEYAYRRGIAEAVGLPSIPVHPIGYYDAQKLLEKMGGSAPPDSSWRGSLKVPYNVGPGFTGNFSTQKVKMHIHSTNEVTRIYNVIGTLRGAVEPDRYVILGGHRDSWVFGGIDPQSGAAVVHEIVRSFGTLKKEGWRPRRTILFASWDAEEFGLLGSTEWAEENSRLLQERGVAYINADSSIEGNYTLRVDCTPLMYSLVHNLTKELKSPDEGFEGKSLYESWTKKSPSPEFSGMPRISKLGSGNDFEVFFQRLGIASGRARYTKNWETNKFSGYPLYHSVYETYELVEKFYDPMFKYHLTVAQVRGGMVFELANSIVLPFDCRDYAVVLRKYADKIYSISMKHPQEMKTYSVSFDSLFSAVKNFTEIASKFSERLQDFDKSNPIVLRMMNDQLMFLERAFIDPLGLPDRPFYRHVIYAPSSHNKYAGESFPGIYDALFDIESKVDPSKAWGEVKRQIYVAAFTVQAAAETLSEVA

CC[C@H](C)[C@@H]([C@@H](CC(=O)N1CCC[C@H]1[C@H](OC)[C@@H](C)C(=O)N[C@H](C)[C@@H](O)c1ccccc1)OC)N(C)C(=O)[C@@H](NC(=O)[C@H](C(C)C)N(C)C(=O)OCc1ccc(NC(=O)[C@H](CCCNC(N)=O)NC(=O)[C@@H](NC(=O)CCCCCN2C(=O)CC(SC[C@H](NC(=O)[C@H](CCC(=O)O)NC(=O)[C@H](CCC(=O)O)NC(=O)[C@H](CCC(=O)O)NC(=O)CCCCCNC(=O)[C@H]3CC[C@H](CNC(=O)CC[C@H](NC(=O)N[C@@H](CCC(=O)O)C(=O)O)C(=O)O)CC3)C(=O)NCCCCCC(=O)N[C@@H](CCCCNC(=O)CCCCCNC(=O)OCCCOc3cccc4c5n6c(c34)=NC3=NC(=Nc4c7ccccc7c(n4[Si]6(O[Si](C)(C)CCC[N+](CCCS(=O)(=O)[O-])(CCCS(=O)(=O)O)CCCS(=O)(=O)O)O[Si](C)(C)CCC[N+](CCCS(=O)(=O)[O-])(CCCS(=O)(=O)O)CCCS(=O)(=O)O)N=C4N=C(N=5)c5ccccc54)c4ccccc43)C(N)=O)C2=O)C(C)C)cc1)C(C)C (stereo partly drawn) [PSMA-1-MMAE-IR700]
binding relative to ZJ24 (PSMA): 4.4 fold
degradation in the presence of cathepsin (human liver cathespin): degraded rapidly
IC50 [1]: 8.42 ± 1.03 nM
ratio of absorbance to control groups (cell viability) ([2]; 690 nm light 1 J/cm2): 0.423
ratio of absorbance to control groups (cell viability) ([2]; 690 nm light 3 J/cm2): 0.208
ratio of absorbance to control groups (cell viability) ([2]; without light): 0.892
coefficient drug interaction (CDI) ([2]; 1 J/cm2 light irradiation): 0.609
coefficient drug interaction (CDI) ([2]; 3 J/cm2 light irradiation): 0.550
selectivity of killing PC3pip versus PC3flu cells ([2]; 72 h in the dark): 50 fold
time to reach peak uptake in PC3pip tumors (PC3pip and PC3flu tumors; 100 nmol/kg i.v.): 1 h
fluorescence signal PC3pip versus PC3flu tumor (PC3pip and PC3flu tumors; 4 h post injection): 3.8 fold
fluorescence signal in PC3flu tumor (PC3pip and PC3flu tumors; [3]): 5.2±1.5 counts
fluorescence signal in PC3pip tumor (PC3pip and PC3flu tumors; [3]): 19.6±4.4 counts
fluorescence signal PC3pip versus PC3flu tumor (PC3pip and PC3flu tumors; 48 h post injection): 2.9 fold
fluorescence signal in PC3flu tumors (PC3pip and PC3flu tumors; [4]): 3.3±1.3 counts
fluorescence signal in PC3pip tumors (PC3pip and PC3flu tumors; [4]): 9.6±2.1 counts
fluorescent signal in PC3pip tumor versus kidneys, liver and other organs (PC3pip and PC3flu tumors; ex vivo, 48 h post injection): more than 3 fold
apoptosis / necrotic damage in tumors, with PDT (PC3pip tumors): most aggressive necrotic damage and apoptosis
